Data on two compounds can be found in US6635628B2, “Methods of administering camptothecin compounds for the treatment of cancer with reduced side effects” (The George Washington University, priority 1998, dated 2003).

Data set [1] is classed as physicochemical. As to conditions: 1,000-molecular weight cut-off membrane. The text has this:
Monomers were separated from micellar aggregates by ultrafiltration through a 1000-molecular weight cut-off membrane (YM1) as described in Materials and Methods. Values are the monomeric forms of the indicated metabolites, expressed as a percentage (%) of the concentration of the initial solution before ultrafiltration. Comparison between TCA and control was estimated by Mann-Whitney test. […] Abbreviations used: CPT lactone (CPT lact.); CPT carboxylate (CPT carb.); SN-38 lactone (SN lact.); and SN-38 carboxylate (SN carb.).

In data set [2] the test system is intestinal cells from whole small-intestine. Put plainly: Uptake of 14C-labeled CPT-11 and SN-38 by intestinal cells, regions combined or not distinguished (TCA, pH, bicarbonate effects). The procedure: By adding the drugs to Hank's solution containing intestinal cells from whole small-intestine, uptake studies were performed.
Intestinal cells were isolated as previously described (28, 29). Briefly, male hamsters were anesthetized with sodium pentobarbital (Nembutol 70 mg/kg body weight). The entire intestine was removed. The intestinal lumen was washed with 37° C. Hank's solution. Sacs of the ileum (12.5 cm from cecum) and jejunum (remaining small intestine) were rinsed, as well as the intestinal sacs of the anal site of small intestine (12.5 cm from cecum) and oral site (the other small intestine). The sacs were rinsed with oxygenated buffer solution containing sodium citrate (96 mM NaCl, 1.5 mM KCl, 5.6 mM KH2PO4, 27 mM sodium citrate, pH 7.3), and incubated for 10 min in the same buffer at 37° C. The sacs were then emptied, filled with oxygenated buffer solution containing EDTA (140 mM NaCl, 16 mM Na2HPO4, 2 mM EDTA, 0.5 mM dithiothreitol, pH 7.3), incubated for 10 min at 37° C. Then each sac was placed onto a petri dish and gently vortexed for 1 min. The buffer containing intestinal cells was recovered in 50 mL of Hanks' solution, washed twice and adjusted at 10^6 cells/ml in Hanks' medium (cellular stock solution containing 0.5% bovine serum albumin, pH 7.4).
The cellular suspension of 0.95 ml was incubated for 15 min in a 37° C. water bath with stirring. Uptake was started by the addition of 0.05 ml PBS (at pH 3 or 9) containing labeled SN-38 or CPT-11 at 37° C. At various time intervals, 100 μL, sample aliquots were diluted into 3 mL of Hank's medium at 4° C. to stop the uptake. The stop solution containing the cells was filtered through a glass microfiber filter (Glass Fiber Filter Circles G4, Fisherbrand, Pa.) under vacuum (20 psi). The cells were washed once with 5 mL of 0.5% bovine serum albumin-containing Hanks' medium (4° C.) and once with 20 mL of Hanks' solution (4° C.). The filters were placed in a vial containing 4 mL of scintillation liquid (Ultra Gold, Packard, Conn.) and the radioactivity was counted in a β scintillation counter (LS3801, Beckman, Md.).
The effect of the metabolic inhibitor, 2,4 dinitrophenol (1 mM), was studied by adding this agent to the cells 3 min prior to either ^14C-CPT-11 or ^14C-SN-38 (2 μM). The effect of 20 mM of taurocholic acid (TCA) on the uptake of both CPT-11 and SN-38 was investigated following overnight incubation of ^14C-CPT-11 (20 μM) and ^14C-SN-38 (2 μM) in Hank's solution, at pH 7.4 and in the presence and absence of TCA. The effect of 200 μM of DNP-SG or SN-38-Glu was also studied by adding these agents to the cell preparation 7 min prior to either ^14C-CPT-11 (20 μM) and ^14C-SN-38 (2 μM).
The effect of physiologic pH on the initial intestinal uptake rate of CPT-11 and SN-38 was investigated following overnight incubation of ^14C-CPT-11 (20 μM) and ^14C-SN-38 (2 μM) in phosphate buffered saline at pH 6.2, 6.8, 7.4 and 8, respectively.
The initial rate of uptake of CPT-11 or SN-38 was derived from the linear regression analysis of the respective regression line obtained from the plot of the uptake as a function of time. The initial rates of uptake were plotted against the corresponding concentration. The data were fitted by least-squares nonlinear regression analysis (SigmaStat, Jandel Scientific, CA), using the equation V=(Vmax·S)/(Km+S)+Kd·S where V represents the initial rate of uptake. Vmax is the maximum rate of uptake, Km is the apparent Michaelis constant, Kd is the rate of diffusion and S is the concentration of CPT-11 or SN-38.

For another data set, the target named is T1, topoisomerase I (Homo sapiens, UniProt P11387).
T1 sequence (P11387 1-765): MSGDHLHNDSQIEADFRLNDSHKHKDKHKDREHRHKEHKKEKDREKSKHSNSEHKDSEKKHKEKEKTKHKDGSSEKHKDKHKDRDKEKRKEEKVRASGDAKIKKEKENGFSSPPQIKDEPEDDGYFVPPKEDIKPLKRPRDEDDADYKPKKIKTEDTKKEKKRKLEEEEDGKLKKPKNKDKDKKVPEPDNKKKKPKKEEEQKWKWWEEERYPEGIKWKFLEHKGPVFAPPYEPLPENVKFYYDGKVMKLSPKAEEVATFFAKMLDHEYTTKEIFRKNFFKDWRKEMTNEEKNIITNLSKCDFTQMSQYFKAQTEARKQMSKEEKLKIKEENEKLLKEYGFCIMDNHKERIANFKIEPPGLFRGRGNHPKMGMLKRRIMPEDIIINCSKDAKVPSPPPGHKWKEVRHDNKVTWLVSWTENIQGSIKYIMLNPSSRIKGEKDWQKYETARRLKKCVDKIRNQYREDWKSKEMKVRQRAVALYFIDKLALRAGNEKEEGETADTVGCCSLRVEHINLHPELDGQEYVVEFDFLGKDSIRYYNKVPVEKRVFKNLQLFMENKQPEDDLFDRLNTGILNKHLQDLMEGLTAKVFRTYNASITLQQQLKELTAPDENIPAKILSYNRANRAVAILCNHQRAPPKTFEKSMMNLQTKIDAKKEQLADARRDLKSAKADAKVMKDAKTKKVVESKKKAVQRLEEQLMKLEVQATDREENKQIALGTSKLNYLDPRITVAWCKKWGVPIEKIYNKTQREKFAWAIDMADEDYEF
As to conditions: cited from earlier work.

In data set [3] the test system is HT29 cells. Put plainly: Cytotoxicity assay (MTT, mitochondrial dehydrogenase activity) in HT29 cells. Type of data set: cell-based. As to conditions: 0.4 μM SN-38; 24 h exposure, 24 h drug-free; pH 6.2, 6.8, 7.4, 8.0. The procedure: Rapid colorimetric assay for mitochondrial dehydrogenase activity was modified and used for the estimation of cytotoxicity of SN-38 (Mosmann, 1983). […] After 24 h-exposure, the cells were washed twice, and subjected to a drug-free incubation for 24 h. Then, the cells were incubated with 0.5 mg/ml 3-(4,5-dimethylthiazol-2-yl)-2,5-diphenyl-tetrazolium bromide (MTT) for 4 h, and the blue formazan crystals were solubilized by addition of 10% n-dodecylsulfate sodium salt (SDS) in 0.1N HCl and overnight incubation. The formation of the blue formazan compound is spectrophotometrically determined at 560 nm (Ultraspec 4050, LKB, Bromma, Sweden).

The conditions of data set [4]: bile of two men treated by cisplatin who received CPT-11 intravenously; cited from earlier work.
The conditions of data set [5]: rat; 24 h after IV injection of 14C-SN-38; cited from earlier work.
The next data set can be described thus: Solubility in water. Type of data set: physicochemical.
Data set [6] concerns HT29 cells. In words: Initial uptake rate of [14C]SN-38 by HT29 cells as a function of pH. Type of data set: in vitro ADME. The procedure: The uptake study was initiated by adding the compounds to Hanks' solution containing HT29 cells. The comparative initial rate of uptake as function of pH was analyzed by Kruskal-Wallis test (p<0.001) and Dunn's method (*p<0.05).
Uptake of ^14C-labeled CPT-11 and SN-38 was measured by rapid vacuum filtration assay (28, 29).

The conditions of data set [7]: cited from earlier work.

For the compound `CCc1c2c(nc3ccc(O)cc13)-c1cc([C@@](O)(CC)C(=O)O)c(CO)c(=O)n1C2` [SN-38 carboxylate], the “effect of TCA on % monomer concentration / association to TCA micelles” value in data set [1] was “did not significantly associate to TCA micelles”. In data set [2], the “transport mechanism in intestinal cells” value is given as “actively absorbed”. The “saturability of the uptake (predominant component)” value in data set [2] (jejunal and ileal cells, SN-38 concentrations lower than 2 μM) is “mostly non-saturable”. For the same compound, the “topoisomerase I-inhibitory activity” value on topoisomerase I was “only minor”.
As to `CCc1c2c(nc3ccc(O)cc13)-c1cc3c(c(=O)n1C2)COC(=O)[C@]3(O)CC` [SN-38, 7-ethyl-10-hydroxy-camptothecin], the “cytotoxicity for HT29 cells as a function of pH” value in the data set on HT29 cells [3] is “significantly higher at pH 6.2 and 6.8 than at pH 7.4 and 8.0”. In addition, in data set [4], the “share of the biliary content” value is given as 0.9-3.3%. Moreover, in data set [5], the distribution of radioactivity entry is given as “found exclusively in the gastrointestinal tract”. In addition, the solubility in water entry in “Solubility in water” is listed as “poorly soluble in water”. Further, the “initial rate of uptake in HT-29 cells compared with isolated hamster intestinal cells” value in the data set with HT29 cells [6] was “lower in HT-29 cells than in isolated hamster intestinal cells”. For the same compound, the “uptake rate in HT29 cells as a function of pH” value in the data set with HT29 cells [6] (2 μM [14C]SN-38, pH 6.2, 6.8, 7.4, 8.0) was “significantly greater at pH 6.2 and 6.8, than at pH 7.4 and 8.0”. Besides, in [7], the “share in lactone form at pH 7.4” value is 13%. In addition, the “initial uptake rate at acidic pH (pH 6.2 and 6.8) versus neutral or alkaline pH (pH 7.4 and 8)” value in data set [2] is on record as “several times greater”. Further, in data set [2] (cells from jejunum and ileum combined, 14C-CPT-11 20 μM, 14C-SN-38 2 μM, pH 7.4, mean±SD, n=5), the “initial uptake rate in the presence of 20 mM TCA” value is given as 69.3±12.7 % of control without TCA. Also, the “decrease of the uptake rate at a pH greater than 6.8” value in data set [2] (pH 6.2) is listed as “around 65%”. For the same compound, the “uptake when HEPES of the Hank's buffer was replaced by sodium bicarbonate” value in data set [2] (pH adjusted to greater than 7) is listed as “decreased”.
